Each block holds one compound with its values, some of them ahead of it. Activity calls are given as the source filed them. The calls are words filed in the database; no cut-off is given here.
Key:
[1] = molecular target: T1, Protein cereblon/N(6)-adenosine-methyltransferase catalytic subunit METTL3 (Homo sapiens) (UniProt Q96SW2+Q86U44); assay: PROTAC activity at CRBN/METTL3 in human MOLM-13 cells assessed as induction of METTL3 degradation at 10 uM by Western blot analysis relative to control; assay type: cell-based
[2] = molecular target: T1, Protein cereblon/N(6)-adenosine-methyltransferase catalytic subunit METTL3 (Homo sapiens); assay: PROTAC activity at CRBN/METTL3 in human MOLM-13 cells assessed as induction of METTL3 degradation at 1 uM by Western blot analysis relative to control; assay type: cell-based
[3] = molecular target: T2, von Hippel-Lindau disease tumor suppressor/N(6)-adenosine-methyltransferase catalytic subunit METTL3 (Homo sapiens, UniProt P40337+Q86U44); assay: PROTAC activity at VHL/METTL3 expressed in human SNU-484 cells assessed as reduction of cytoplasmic METTL3 protein level at 1 uM incubated for 24 hrs by Western blot analysis; assay type: cell-based
Target sequence in this assay (Q86U44 2-580 partner limits assumed): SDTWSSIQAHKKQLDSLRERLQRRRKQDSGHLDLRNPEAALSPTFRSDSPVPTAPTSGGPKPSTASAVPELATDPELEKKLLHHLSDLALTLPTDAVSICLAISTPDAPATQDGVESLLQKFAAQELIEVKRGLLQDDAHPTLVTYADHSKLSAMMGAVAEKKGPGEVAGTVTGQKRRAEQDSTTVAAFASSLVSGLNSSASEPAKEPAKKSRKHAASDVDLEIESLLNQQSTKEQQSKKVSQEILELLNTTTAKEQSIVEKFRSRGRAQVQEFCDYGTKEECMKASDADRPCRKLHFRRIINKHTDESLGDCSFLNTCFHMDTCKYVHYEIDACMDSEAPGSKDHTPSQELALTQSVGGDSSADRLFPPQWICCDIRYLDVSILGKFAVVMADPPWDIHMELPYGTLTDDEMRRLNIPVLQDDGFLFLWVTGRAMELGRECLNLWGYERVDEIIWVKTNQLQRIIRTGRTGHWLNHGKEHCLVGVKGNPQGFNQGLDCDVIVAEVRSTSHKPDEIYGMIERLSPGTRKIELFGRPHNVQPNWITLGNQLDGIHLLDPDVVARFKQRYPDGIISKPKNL
Target sequence in this assay (P40337 whole entry): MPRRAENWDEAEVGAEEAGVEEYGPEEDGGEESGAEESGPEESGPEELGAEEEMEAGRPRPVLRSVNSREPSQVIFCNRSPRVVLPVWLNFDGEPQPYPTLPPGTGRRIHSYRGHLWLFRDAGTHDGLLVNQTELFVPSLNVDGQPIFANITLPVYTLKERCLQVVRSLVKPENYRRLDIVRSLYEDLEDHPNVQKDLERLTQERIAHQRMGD

MOLM-13 [4] = assay: Antiproliferative activity against human MOLM-13 cells assessed as inhibition of cell proliferation measured after 72 hrs by Celltiter Glo luminescent cell viability assay; assay type: functional, cell-based; conditions: MOLM-13, 72 h
[5] = molecular target: T2, von Hippel-Lindau disease tumor suppressor/N(6)-adenosine-methyltransferase catalytic subunit METTL3; assay: PROTAC activity at VHL/METTL3 expressed in human AGS cells assessed as reduction of METTL3 protein level in nucleus fraction at 1 uM incubated for 24 hrs by Western blot analysis; assay type: cell-based
Target sequence in this assay (Q86U44 2-580 partner limits assumed): as the sequence (Q86U44 2-580 partner limits assumed) above
Target sequence in this assay (P40337 whole entry): as the sequence (P40337 whole entry) above

MOLM-13 [6] = assay: Downregulation of C-Myc protein level expression in human MOLM-13 cells incubated for 24 hrs by Western blot analysis; assay type: functional, cell-based
[7] = molecular target: T2, von Hippel-Lindau disease tumor suppressor/N(6)-adenosine-methyltransferase catalytic subunit METTL3; assay: PROTAC activity at VHL/METTL3 expressed in human AGS cells assessed as reduction of cytoplasmic METTL3 protein level at 1 uM incubated for 24 hrs by Western blot analysis; assay type: cell-based
Target sequence in this assay (Q86U44 2-580 partner limits assumed): as the sequence (Q86U44 2-580 partner limits assumed) above
Target sequence in this assay (P40337 whole entry): as the sequence (P40337 whole entry) above

[8] = molecular target: N6-adenosine-methyltransferase catalytic subunit (Homo sapiens) (UniProt Q86U44); assay: Induction of thermal stabilization of METTL3 in human MOLM-13 cells at 52.4 to 54.8 degreeC incubated for 1 hrs by cellular thermal shift assay; assay type: cell-based
[9] = molecular target: T2, von Hippel-Lindau disease tumor suppressor/N(6)-adenosine-methyltransferase catalytic subunit METTL3; assay: PROTAC activity at VHL/METTL3 in human MOLM-13 cells assessed as induction of METTL3 degradation incubated for 24 hrs by Western blot analysis; assay type: cell-based
[10] = molecular target: T2, von Hippel-Lindau disease tumor suppressor/N(6)-adenosine-methyltransferase catalytic subunit METTL3; assay: PROTAC activity at VHL/METTL3 in human MOLM-13 cells assessed as induction of METTL3 degradation incubated for 4 to 24 hrs by Western blot analysis relative to control; assay type: cell-based; conditions: time 4-24 hrs
Target sequence in this assay (Q86U44 2-580 partner limits assumed): as the sequence (Q86U44 2-580 partner limits assumed) above
Target sequence in this assay (P40337 whole entry): as the sequence (P40337 whole entry) above

Gastric cancer organoid [11] = assay: Anti-proliferative activity against patient derived GA352T organoids assessed as suppression of tumor growth incubated for 5 days by Celltiter-glo viability assay; assay type: functional, tissue-based; conditions: Homo sapiens; Neoplasm; time 5.0 day
[12] = molecular target: T2, von Hippel-Lindau disease tumor suppressor/N(6)-adenosine-methyltransferase catalytic subunit METTL3; assay: PROTAC activity at VHL/METTL3 in human MOLM-13 cells assessed as induction of METTL3 degradation at 1 uM by Western blot analysis; assay type: cell-based; conditions: time 4-24 hrs, TDE = time-dependent effect
Target sequence in this assay (Q86U44 2-580 partner limits assumed): as the sequence (Q86U44 2-580 partner limits assumed) above
Target sequence in this assay (P40337 whole entry): as the sequence (P40337 whole entry) above

GES1 [13] = assay: Anticancer activity against human GES1 cells assessed as inhibition of cell growth incubated for 72 hrs by cell viability assay; assay type: functional, cell-based
[14] = molecular target: T2, von Hippel-Lindau disease tumor suppressor/N(6)-adenosine-methyltransferase catalytic subunit METTL3; assay: PROTAC activity at VHL/METTL3 expressed in human SNU-484 cells assessed as reduction of METTL3 protein level in nucleus fraction at 1 uM incubated for 24 hrs by Western blot analysis; assay type: cell-based
Target sequence in this assay (Q86U44 2-580 partner limits assumed): as the sequence (Q86U44 2-580 partner limits assumed) above
Target sequence in this assay (P40337 whole entry): as the sequence (P40337 whole entry) above

METTL3/METTL14 = METTL3/METTL14 (Homo sapiens, UniProt Q86U44); assay: Inhibition of METTL3/METTL14 (unknown origin) using Oligo ssRNA as substrate incubated for 20 min by Hotspot RNA methyltransferase assay; assay type: protein-complex assay
[15] = molecular target: T2, von Hippel-Lindau disease tumor suppressor/N(6)-adenosine-methyltransferase catalytic subunit METTL3; assay: PROTAC activity at VHL/METTL3 in HEK293T cells assessed as induction of METTL3 degradation at 1 uM preincubated with MLN4924 for 2.5 hrs followed by compound addition and measured after 6 hrs by Western blot analysis; assay type: cell-based
[16] = molecular target: T2, von Hippel-Lindau disease tumor suppressor/N(6)-adenosine-methyltransferase catalytic subunit METTL3; assay: PROTAC activity at VHL/METTL3 in HEK293T cells assessed as induction of METTL3 degradation at 1 uM preincubated with epoxomicin for 2.5 hrs followed by compound addition and measured after 6 hrs by Western blot analysis; assay type: cell-based
HL-60 = assay: Antiproliferative activity against human HL-60 cells assessed as cell growth inhibition after 72 hrs by Celltiter Glo luminescent cell viability assay; assay type: functional, cell-based
MOLM-13 [17] = assay: Induction of apoptosis in human MOLM-13 cells at 5 uM incubated for 48 hrs by Annexin V/PI staining based flow cytometry analysis; assay type: functional, cell-based
[18] = molecular target: T2, von Hippel-Lindau disease tumor suppressor/N(6)-adenosine-methyltransferase catalytic subunit METTL3; assay: PROTAC activity at VHL/METTL3 (unknown origin) expressed in HeLa cells assessed as BRD4-eGFP_mCherry level incubated for 4 hrs in presence of MZ1 by flow cytometry analysis; assay type: cell-based
MOLM-14 = assay: Antiproliferative activity against human MOLM-14 cells assessed as cell growth inhibition after 72 hrs by Celltiter Glo luminescent cell viability assay; assay type: functional, cell-based
[19] = molecular target: T2, von Hippel-Lindau disease tumor suppressor/N(6)-adenosine-methyltransferase catalytic subunit METTL3; assay: PROTAC activity at VHL/METTL3 in human MOLM-13 cells assessed as induction of METTL3 degradation at 1 uM by Western blot analysis relative to control; assay type: cell-based
[20] = molecular target: T2, von Hippel-Lindau disease tumor suppressor/N(6)-adenosine-methyltransferase catalytic subunit METTL3; assay: PROTAC activity at VHL/METTL3 (unknown origin) expressed in HeLa cells incubated for 4 hrs presence of MZ1 by flow cytometry analysis; assay type: cell-based
[21] = molecular target: T2, von Hippel-Lindau disease tumor suppressor/N(6)-adenosine-methyltransferase catalytic subunit METTL3; assay: PROTAC activity at VHL/METTL3 in human MOLM-13 cells assessed as induction of METTL3 degradation at 10 uM preincubated with UZH2 for 2 hrs followed by compound addition and measured after 24 hrs by Western blot analysis; assay type: cell-based
[22] = molecular target: T2, von Hippel-Lindau disease tumor suppressor/N(6)-adenosine-methyltransferase catalytic subunit METTL3; assay: (§1) Binding affinity to N-Luc tagged METTL3 (unknown origin)/Halo-tagged VHL (unknown origin) expressed in HEK293T cells assessed as ternary complex formation by measuring increase in BRET ratio at 1 uM preincubated with epoxomicin for 2 hrs followed by compound addition and measured after 4.5 hrs by NanoBRET assay; assay type: cell-based
[23] = molecular target: T2, von Hippel-Lindau disease tumor suppressor/N(6)-adenosine-methyltransferase catalytic subunit METTL3; assay: PROTAC activity at VHL/METTL3 in human MOLM-13 cells assessed as induction of METTL3 degradation at 10 uM preincubated with VH032 for 2 hrs followed by compound addition and measured after 24 hrs by Western blot analysis; assay type: cell-based
Gastric cancer organoid [24] = assay: Anti-proliferative activity against patient derived GA215T organoids assessed as suppression of tumor growth incubated for 5 days by Celltiter-glo viability assay; assay type: functional, tissue-based; conditions: Homo sapiens; Neoplasm; time 5.0 day
[25] = molecular target: N6-adenosine-methyltransferase catalytic subunit (Homo sapiens) (UniProt Q86U44); assay: Induction of thermal stabilization of endogenous METTL3 in human MOLM-13 cells incubated for 1 hrs by cellular thermal shift assay; assay type: cell-based
HeLa = assay: Binding affinity to METTL3/GFP-fused BRD4 (unknown origin) expressed in HeLa cells presence of MZ1 by Western blot analysis; assay type: cell-based; conditions: Homo sapiens
GES1 [26] = assay: Cytotoxicity against human GES1 cells assessed as reduction in cell viability incubated for 24 hrs; assay type: toxicity, cell-based; conditions: ges1, 24 h
[27] = molecular target: T2, von Hippel-Lindau disease tumor suppressor/N(6)-adenosine-methyltransferase catalytic subunit METTL3; assay: PROTAC activity at VHL/METTL3 in human MOLM-13 cells assessed as induction of METTL3 degradation at 10 uM by Western blot analysis relative to control; assay type: cell-based
[28] = molecular target: T2, von Hippel-Lindau disease tumor suppressor/N(6)-adenosine-methyltransferase catalytic subunit METTL3; assay: PROTAC activity at VHL/METTL3 in human MOLM-13 cells assessed as induction of METTL3 degradation at 1 uM incubated for 4 hrs by Western blot analysis relative to control; assay type: cell-based
[29] = molecular target: T2, von Hippel-Lindau disease tumor suppressor/N(6)-adenosine-methyltransferase catalytic subunit METTL3; assay: PROTAC activity at VHL/METTL3 in HEK293T cells assessed as induction of METTL3 degradation at 1 uM preincubated with MG132 for 2.5 hrs followed by compound addition and measured after 6 hrs by Western blot analysis; assay type: cell-based
AGS = assay: Anticancer activity against human AGS cells assessed as inhibition of cell growth incubated for 72 hrs by cell viability assay; assay type: functional, cell-based
[30] = molecular target: T2, von Hippel-Lindau disease tumor suppressor/N(6)-adenosine-methyltransferase catalytic subunit METTL3; assay: as §1, with “decrease” for “increase”, “30” for “1”; assay type: cell-based
[31] = molecular target: T2, von Hippel-Lindau disease tumor suppressor/N(6)-adenosine-methyltransferase catalytic subunit METTL3; assay: Binding affinity to N-Luc tagged METTL3 (unknown origin)/Halo-tagged VHL (unknown origin) HA-Ub expressed in HEK293T cells assessed as ternary complex formation by measuring increase ubiquitination level at 1 uM preincubated with epoxomicin for 2.5 hrs followed by compound addition and measured after 6 hrs by NanoBRET assay; assay type: cell-based
[32] = (§2) Anticancer activity against human SNU484 cells assessed as inhibition of cell growth incubated for 72 hrs by cell viability assay; assay type: functional, cell-based; conditions: SNU-484, 72 h
[33] = molecular target: T2, von Hippel-Lindau disease tumor suppressor/N(6)-adenosine-methyltransferase catalytic subunit METTL3; assay: PROTAC activity at VHL/METTL3 in HEK293T cells assessed as induction of METTL3 degradation at 1 uM preincubated with 3MA autophagy inhibitor for 2.5 hrs followed by compound addition and measured after 6 hrs by Western blot analysis; assay type: cell-based
[34] = molecular target: T2, von Hippel-Lindau disease tumor suppressor/N(6)-adenosine-methyltransferase catalytic subunit METTL3; assay: PROTAC activity at VHL/METTL3 in human MOLM-13 cells assessed as induction of METTL3 degradation at 1 uM incubated for 24 hrs by Western blot analysis relative to control; assay type: cell-based
SNU-484 = assay: as §2; assay type: functional, cell-based

T1 sequence (Q86U44 whole entry, looked up): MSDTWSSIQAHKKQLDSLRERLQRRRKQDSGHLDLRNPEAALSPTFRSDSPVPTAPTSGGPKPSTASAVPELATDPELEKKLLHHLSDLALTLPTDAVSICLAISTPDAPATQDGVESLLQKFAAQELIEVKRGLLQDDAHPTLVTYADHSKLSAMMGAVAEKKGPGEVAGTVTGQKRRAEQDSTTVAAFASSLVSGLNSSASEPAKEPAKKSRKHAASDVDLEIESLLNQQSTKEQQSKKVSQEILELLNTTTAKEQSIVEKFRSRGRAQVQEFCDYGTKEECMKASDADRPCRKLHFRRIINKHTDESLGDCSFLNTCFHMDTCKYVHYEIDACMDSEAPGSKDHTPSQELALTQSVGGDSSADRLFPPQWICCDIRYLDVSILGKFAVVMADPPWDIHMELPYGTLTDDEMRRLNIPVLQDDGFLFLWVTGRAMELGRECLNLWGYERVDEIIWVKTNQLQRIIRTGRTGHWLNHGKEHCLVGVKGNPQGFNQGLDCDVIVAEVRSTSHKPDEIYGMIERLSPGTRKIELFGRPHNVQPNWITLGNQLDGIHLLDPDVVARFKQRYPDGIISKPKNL
T1 sequence (Q96SW2 whole entry, looked up): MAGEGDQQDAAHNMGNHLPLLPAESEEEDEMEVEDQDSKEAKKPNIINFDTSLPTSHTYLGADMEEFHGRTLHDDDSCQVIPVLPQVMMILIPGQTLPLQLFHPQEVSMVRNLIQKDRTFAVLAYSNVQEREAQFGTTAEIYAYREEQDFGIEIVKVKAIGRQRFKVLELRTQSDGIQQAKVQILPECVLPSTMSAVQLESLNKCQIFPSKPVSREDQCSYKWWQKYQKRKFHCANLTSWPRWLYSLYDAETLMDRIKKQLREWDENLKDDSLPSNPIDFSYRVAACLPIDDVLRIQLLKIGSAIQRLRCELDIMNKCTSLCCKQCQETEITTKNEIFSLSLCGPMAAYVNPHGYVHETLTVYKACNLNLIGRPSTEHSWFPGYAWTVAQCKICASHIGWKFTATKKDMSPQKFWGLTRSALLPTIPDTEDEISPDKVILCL
N6-adenosine-methyltransferase catalytic subunit (Homo sapiens), sequence (Q86U44 whole entry, the tested form may be a part): as the sequence (Q86U44 whole entry, looked up) above
METTL3/METTL14, sequence (Q86U44 whole entry): as the sequence (Q86U44 whole entry, looked up) above
METTL3/METTL14, sequence (Q9HCE5 whole entry, further chain): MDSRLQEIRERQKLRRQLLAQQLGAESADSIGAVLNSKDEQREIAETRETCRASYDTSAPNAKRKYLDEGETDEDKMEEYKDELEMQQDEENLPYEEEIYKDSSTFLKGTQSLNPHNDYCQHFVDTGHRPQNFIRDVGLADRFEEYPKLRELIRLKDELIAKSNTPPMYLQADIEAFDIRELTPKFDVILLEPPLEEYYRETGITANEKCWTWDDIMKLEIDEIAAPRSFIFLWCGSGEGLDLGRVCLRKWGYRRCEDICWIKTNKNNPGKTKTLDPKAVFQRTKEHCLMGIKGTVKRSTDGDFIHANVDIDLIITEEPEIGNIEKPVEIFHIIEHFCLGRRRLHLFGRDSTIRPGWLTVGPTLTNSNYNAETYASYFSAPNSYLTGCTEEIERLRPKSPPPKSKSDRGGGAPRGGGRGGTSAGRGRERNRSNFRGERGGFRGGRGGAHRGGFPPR

Activity [1]: 29%
Activity [2]: 33%
SMILES: CC1(C)CCN(Cc2cc(F)c(N3CC(=O)NC4(CCN(c5cc(NCCCCCCCC(=O)N6CCN(c7ccc8c(c7)C(=O)N(C7CCC(=O)NC7=O)C8=O)CC6)ncn5)CC4)C3)cc2F)CC1 (stereo unspecified)

Activity [1]: 22%
Activity [2]: 9%
SMILES: CC1(C)CCN(Cc2cc(F)c(N3CC(=O)NC4(CCN(c5cc(NCCCCCCCCCCC(=O)N6CCN(c7ccc8c(c7)C(=O)N(C7CCC(=O)NC7=O)C8=O)CC6)ncn5)CC4)C3)cc2F)CC1 (stereo unspecified)

Activity [3]: Active
IC50 (MOLM-13 [4]): 1.04 µM
Activity [5]: Active
Activity [7]: Active
Activity [8]: Active
Activity [9]: Dose-Dependent Effect
DC50 [9]: 220 nM
Activity [10]: Dose-Dependent Effect
Activity [12]: Tde
Activity [14]: Active
IC50 (METTL3/METTL14): 341 nM
Activity [15]: inactive
Activity [16]: inactive
Activity [18]: inactive
Activity [19]: 84%
Activity [20]: Active
Activity [21]: inactive
Activity [22]: Active
Activity [23]: Active
Activity [25]: Dose-Dependent Effect
Activity [27]: 50%
Activity [28]: > 50%
Activity [29]: inactive
IC50 (AGS): 1480 nM
Activity [30]: inactive
Activity [31]: Active
Activity [33]: Active
Activity [34]: 90%
SMILES: Cc1ncsc1-c1ccc(CNC(=O)[C@@H]2C[C@@H](O)CN2C(=O)[C@@H](NC(=O)CCCCCCCNc2cc(N3CCC4(CC3)CN(c3cc(F)c(CN5CCC(C)(C)CC5)cc3F)CC(=O)N4)ncn2)C(C)(C)C)cc1
Activity (MOLM-13 [6]): Dose-Dependent Effect
Activity (Gastric cancer organoid [11]): Active
IC50 (GES1 [13]; GES1, 72 h): > 50 µM
Activity (HL-60): Active
Activity (MOLM-13 [17]): Active
Activity (MOLM-14): Active
Activity (Gastric cancer organoid [24]): Active
Activity (HeLa): Active
Activity (GES1 [26]): Toxic
IC50 [32]: 3000 nM

IC50 (MOLM-13 [4]): 5.47 µM
SMILES: O=C(NCc1cn2cc(CNCC3CCCCC3)ccc2n1)c1cc(=O)n2ccccc2n1
Activity (GES1 [13]): inactive
Activity (AGS): inactive
Activity (SNU-484): inactive
